In publication PMC4945764, “Effect of flecainide derivatives on sarcoplasmic reticulum calcium release suggests a lack of direct action on the cardiac ryanodine receptor” (British Journal of Pharmacology, 2016):

Tests used:
Nav1.5 channel [1] = biological target: T1, Nav1.5 channel (Homo sapiens, UniProt Q14524); assay: INa recording, use-dependent block at […] Hz ([…] NU-FL); assay type: cell-based
T1 construct: gene SCN5A; recombinant Nav1.5 in HEK293 (H-Flp/Nav1.5) cells

[2] = biological target: T2, cardiac ryanodine receptor (RyR2) (Homo sapiens, UniProt Q92736); assay: single-channel recording of purified hRyR2 in planar lipid bilayers; association and dissociation rates of block; assay type: biochemical
T2 construct: recombinant eGFP-hRyR2, purified from HEK293 cells

Nav1.5 channel [3] = biological target: T1, Nav1.5 channel; assay: INa recording, use-dependent block at […] Hz ([…] QX-FL); assay type: cell-based
[4] = biological target: T2, cardiac ryanodine receptor (RyR2); assay: single-channel recording of purified hRyR2 in planar lipid bilayers, +[…] mV, cytosolic to luminal K+ current; assay type: biochemical

T2 sequence (Q92736 whole entry): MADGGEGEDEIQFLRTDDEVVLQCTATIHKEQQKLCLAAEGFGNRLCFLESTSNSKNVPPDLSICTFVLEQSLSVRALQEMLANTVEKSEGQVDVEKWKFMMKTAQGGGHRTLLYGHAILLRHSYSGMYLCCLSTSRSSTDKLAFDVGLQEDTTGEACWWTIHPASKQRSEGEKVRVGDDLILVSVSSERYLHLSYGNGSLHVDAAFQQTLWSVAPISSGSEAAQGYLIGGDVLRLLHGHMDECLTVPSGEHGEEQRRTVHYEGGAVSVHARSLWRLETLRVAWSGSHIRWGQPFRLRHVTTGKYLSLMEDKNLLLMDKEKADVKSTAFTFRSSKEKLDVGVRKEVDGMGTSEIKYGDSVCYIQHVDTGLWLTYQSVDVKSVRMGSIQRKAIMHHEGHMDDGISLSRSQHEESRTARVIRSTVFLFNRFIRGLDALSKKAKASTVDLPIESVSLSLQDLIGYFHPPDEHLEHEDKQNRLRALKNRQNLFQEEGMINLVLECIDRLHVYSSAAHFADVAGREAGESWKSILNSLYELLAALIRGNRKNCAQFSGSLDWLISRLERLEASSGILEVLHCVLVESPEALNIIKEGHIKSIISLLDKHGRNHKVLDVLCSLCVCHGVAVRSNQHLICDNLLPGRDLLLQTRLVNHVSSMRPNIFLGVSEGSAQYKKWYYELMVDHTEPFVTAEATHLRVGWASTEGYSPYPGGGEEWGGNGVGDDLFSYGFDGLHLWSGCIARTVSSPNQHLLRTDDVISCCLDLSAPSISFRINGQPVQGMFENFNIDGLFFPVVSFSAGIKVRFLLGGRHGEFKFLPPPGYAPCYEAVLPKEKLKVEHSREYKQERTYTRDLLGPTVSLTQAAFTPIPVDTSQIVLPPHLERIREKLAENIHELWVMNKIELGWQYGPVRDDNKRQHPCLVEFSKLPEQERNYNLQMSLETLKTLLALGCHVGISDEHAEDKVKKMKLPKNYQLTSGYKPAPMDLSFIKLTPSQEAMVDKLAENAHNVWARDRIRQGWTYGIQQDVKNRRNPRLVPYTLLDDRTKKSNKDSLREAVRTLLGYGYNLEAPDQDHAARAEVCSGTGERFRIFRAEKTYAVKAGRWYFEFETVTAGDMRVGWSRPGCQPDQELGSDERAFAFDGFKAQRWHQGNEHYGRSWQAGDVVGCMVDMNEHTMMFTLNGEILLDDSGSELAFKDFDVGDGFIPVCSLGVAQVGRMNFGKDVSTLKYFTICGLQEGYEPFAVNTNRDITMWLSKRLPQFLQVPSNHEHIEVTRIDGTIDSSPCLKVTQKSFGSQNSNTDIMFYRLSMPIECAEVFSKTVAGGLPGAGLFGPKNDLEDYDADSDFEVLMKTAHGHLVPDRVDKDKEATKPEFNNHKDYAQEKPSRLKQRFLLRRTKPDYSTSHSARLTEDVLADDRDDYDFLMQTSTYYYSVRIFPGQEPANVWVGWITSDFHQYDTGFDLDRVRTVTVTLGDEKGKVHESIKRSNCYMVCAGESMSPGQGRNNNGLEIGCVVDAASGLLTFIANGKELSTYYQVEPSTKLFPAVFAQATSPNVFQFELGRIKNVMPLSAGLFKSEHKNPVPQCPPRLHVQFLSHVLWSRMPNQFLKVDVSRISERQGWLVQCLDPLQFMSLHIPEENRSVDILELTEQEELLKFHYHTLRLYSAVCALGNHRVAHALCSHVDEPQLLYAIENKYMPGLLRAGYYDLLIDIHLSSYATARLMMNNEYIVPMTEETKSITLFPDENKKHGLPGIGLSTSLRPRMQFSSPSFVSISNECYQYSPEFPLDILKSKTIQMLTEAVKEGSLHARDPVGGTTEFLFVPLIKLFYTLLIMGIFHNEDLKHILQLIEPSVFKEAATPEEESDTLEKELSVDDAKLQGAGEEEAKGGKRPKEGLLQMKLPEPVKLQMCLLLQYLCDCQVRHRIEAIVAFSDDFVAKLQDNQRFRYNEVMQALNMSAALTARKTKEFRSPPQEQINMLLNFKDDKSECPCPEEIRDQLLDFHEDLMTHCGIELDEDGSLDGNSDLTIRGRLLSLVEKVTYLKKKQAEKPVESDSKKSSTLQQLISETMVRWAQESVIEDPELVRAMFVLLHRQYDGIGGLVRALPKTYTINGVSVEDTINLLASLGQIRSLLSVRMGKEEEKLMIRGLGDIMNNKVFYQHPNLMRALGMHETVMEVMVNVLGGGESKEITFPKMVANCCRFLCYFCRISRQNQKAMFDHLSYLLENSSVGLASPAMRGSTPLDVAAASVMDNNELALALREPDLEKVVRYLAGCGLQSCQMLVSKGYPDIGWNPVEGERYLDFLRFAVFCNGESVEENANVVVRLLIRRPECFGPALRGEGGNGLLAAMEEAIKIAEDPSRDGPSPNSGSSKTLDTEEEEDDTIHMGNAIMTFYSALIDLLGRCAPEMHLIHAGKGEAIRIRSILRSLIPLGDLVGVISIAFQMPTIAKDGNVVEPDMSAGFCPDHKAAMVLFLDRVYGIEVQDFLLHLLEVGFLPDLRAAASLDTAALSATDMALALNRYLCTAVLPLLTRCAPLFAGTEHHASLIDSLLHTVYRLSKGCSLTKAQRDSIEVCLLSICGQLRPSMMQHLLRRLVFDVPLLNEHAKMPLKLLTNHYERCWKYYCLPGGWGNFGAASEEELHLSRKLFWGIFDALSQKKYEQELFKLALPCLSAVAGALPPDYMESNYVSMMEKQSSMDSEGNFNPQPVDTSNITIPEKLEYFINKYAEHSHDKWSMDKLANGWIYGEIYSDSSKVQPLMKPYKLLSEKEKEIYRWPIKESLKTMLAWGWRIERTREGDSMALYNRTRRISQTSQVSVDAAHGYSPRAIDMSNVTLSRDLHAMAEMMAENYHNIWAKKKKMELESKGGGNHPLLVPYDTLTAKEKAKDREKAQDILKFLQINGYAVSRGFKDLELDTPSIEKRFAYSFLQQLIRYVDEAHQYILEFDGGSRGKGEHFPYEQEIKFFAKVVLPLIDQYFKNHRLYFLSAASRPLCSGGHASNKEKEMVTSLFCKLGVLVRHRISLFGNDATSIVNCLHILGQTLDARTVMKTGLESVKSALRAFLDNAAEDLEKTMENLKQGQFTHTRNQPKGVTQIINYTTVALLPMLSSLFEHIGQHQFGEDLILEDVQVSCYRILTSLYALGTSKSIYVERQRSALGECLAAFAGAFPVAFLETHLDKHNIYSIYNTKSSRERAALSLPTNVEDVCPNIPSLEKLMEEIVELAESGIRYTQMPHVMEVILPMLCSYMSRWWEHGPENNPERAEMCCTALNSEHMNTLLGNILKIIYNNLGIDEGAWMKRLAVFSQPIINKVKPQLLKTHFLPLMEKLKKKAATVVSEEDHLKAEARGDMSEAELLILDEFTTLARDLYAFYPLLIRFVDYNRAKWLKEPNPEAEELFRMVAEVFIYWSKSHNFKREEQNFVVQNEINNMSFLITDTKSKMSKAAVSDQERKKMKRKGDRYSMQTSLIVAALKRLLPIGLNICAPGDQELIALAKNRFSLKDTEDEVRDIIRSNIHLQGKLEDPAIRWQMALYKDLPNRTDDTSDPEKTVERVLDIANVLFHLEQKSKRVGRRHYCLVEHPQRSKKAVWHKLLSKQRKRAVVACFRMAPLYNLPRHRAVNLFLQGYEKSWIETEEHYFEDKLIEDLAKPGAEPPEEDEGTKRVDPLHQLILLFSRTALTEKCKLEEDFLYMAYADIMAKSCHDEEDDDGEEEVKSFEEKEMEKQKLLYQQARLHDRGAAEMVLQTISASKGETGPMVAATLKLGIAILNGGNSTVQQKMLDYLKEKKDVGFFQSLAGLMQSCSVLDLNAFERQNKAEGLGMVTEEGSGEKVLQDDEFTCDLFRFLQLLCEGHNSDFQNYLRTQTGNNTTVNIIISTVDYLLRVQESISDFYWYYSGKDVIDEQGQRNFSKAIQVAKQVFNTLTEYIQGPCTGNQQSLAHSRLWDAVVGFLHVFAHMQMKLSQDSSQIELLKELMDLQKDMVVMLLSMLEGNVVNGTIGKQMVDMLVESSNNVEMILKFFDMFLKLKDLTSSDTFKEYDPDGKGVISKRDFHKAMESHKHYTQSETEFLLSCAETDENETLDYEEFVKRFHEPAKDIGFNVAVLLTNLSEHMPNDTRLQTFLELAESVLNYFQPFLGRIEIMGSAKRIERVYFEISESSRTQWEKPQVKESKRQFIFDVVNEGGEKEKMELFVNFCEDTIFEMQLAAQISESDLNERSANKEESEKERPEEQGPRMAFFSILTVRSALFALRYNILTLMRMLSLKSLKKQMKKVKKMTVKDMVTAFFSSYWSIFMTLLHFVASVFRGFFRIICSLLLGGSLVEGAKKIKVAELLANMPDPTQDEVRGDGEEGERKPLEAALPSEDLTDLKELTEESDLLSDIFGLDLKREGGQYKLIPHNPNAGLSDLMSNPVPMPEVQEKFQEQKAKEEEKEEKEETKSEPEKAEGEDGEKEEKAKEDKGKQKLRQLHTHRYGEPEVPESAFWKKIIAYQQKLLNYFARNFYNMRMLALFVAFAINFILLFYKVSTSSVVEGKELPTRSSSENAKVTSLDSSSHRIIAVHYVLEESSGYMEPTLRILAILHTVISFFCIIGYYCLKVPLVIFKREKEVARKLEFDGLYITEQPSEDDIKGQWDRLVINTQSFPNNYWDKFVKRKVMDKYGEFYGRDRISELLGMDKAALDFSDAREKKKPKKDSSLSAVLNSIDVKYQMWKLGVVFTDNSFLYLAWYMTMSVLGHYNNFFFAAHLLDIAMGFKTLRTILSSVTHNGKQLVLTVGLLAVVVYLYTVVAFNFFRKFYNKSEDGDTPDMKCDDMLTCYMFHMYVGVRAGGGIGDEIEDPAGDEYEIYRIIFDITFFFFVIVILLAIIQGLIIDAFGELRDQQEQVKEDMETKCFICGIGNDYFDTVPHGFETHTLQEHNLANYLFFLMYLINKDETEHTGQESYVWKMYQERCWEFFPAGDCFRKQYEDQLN

## O=C(NCCN1CCOCC1)c1cc(OCC(F)(F)F)ccc1OCC(F)(F)F [NU-FL]
Nav1.5 channel [1]
  INa recording, use-dependent block at 10 Hz (10 and 100 μM NU-FL): Use‐dependent block (UDB) of voltage gated Na^+ channel current (INa) by flecainide analogues, NU‐FL and QX‐FL.
[2]
  kon: 6.2e+08 ± 5e+07 M⁻¹ s⁻¹

## C[N+]1(C)CCCCC1CNC(=O)c1cc(OCC(F)(F)F)ccc1OCC(F)(F)F (centres unmarked) [QX-FL]
Nav1.5 channel [3]
  INa recording, use-dependent block at 10 Hz (10 μM QX-FL): Use‐dependent block (UDB) of voltage gated Na^+ channel current (INa) by flecainide analogues, NU‐FL and QX‐FL.
[2]
  kon: 9.1e+08 ± 3e+07 M⁻¹ s⁻¹

## O=C(NCC1CCCCN1)c1cc(OCC(F)(F)F)ccc1OCC(F)(F)F (centres unmarked) [flecainide]
[4]
  Kd: 13.1 ± 1.89 µM
